{
  "source": "patent US20220193085A1",
  "about": "“METHODS OF THROMBOPROPHYLAXIS” (JANSSEN PHARMACEUTICALS, INC., priority 2020, published 2022)",
  "key": {"[1]": {"assay": "Benefit-risk assessment: excess number of events per 1,000 subjects, Part B rivaroxaban vs aspirin", "protocol": "Benefit-risk balance was assessed using excess number of events defined as the absolute proportion difference between the Part B rivaroxaban and aspirin groups scaled to 1,000 subjects to reflect benefits and risks on a population level."}, "[2]": {"conditions": "human, in vivo", "excerpt": "The methods and products of the invention concern dosages that are clinically proven safe and/or effective. Adverse events that impact whether the inventive dose, dosing regimen, treatment or method with rivaroxaban of the present invention are safe are adverse bleeding events that include, for example, major bleeding. “Major bleeding” as used herein is defined in accordance with ISTH criteria as clinically overt bleeding associated with a decrease in hemoglobin of […], a transfusion of the equivalent of […] of packed red blood cells or whole blood, or bleeding at a critical site, or with fatal outcome. Other adverse events include clinically relevant non-major bleeding and trivial (minimal) bleeding.\nThe primary safety outcome was ISTH defined major bleeding. Major bleeding was defined as overt bleeding and: […]\n1) Associated with a fall in hemoglobin of 2 g/dL or more; or 2) Leading to a transfusion of the equivalent of 2 or more units of packed red blood cells or whole blood in adults; or 3) Occurring in a critical site: intracranial, intraspinal, intraocular, pericardial, intraarticular, intramuscular with compartment syndrome, retroperitoneal; or 4) Contributing to death.\nThe secondary safety outcomes were: Clinically relevant non-major bleeding and trivial (minimal) bleeding events."}, "[3]": {"conditions": "Part B rivaroxaban minus aspirin, up to end of treatment, full analysis set"}, "[4]": {"conditions": "Part B rivaroxaban vs aspirin, negative values favor rivaroxaban"}, "[5]": {"conditions": "Part B rivaroxaban vs aspirin, positive values favor aspirin"}, "[6]": {"conditions": "for 1,000 subjects treated with rivaroxaban"}},
  "data": [
    {"smiles": "O=C(NC[C@H]1CN(c2ccc(N3CCOCC3=O)cc2)C(=O)O1)c1ccc(Cl)s1", "note": "[Rivaroxaban, 5-chloro-N-({(5S)-2-oxo-3-[4-(3-oxo-4-morpholinyl)phenyl]-1,3,oxazolidin-5-yl}methyl)-2-thiophenecarboxamide]", "values": [
      {"measurement": "Excess number of events: CRNM bleeding", "setting": "[1]; [3]", "result": "−25.7 events per 1,000 subjects"},
      {"measurement": "Excess number of events: SAEs", "setting": "[1]; [3]", "result": "46.0 events per 1,000 subjects"},
      {"measurement": "Excess number of events: all-cause mortality", "setting": "[1]; [3]", "result": "0.0 events per 1,000 subjects"},
      {"measurement": "Excess number of events: any thrombotic event (primary efficacy outcome)", "setting": "[1]; [3]", "result": "−72.6 events per 1,000 subjects"},
      {"measurement": "Excess number of events: arterial/intracardiac thrombosis", "setting": "[1]; [3]", "result": "0.0 events per 1,000 subjects"},
      {"measurement": "Excess number of events: fall in hemoglobin ≥2 g/dL or transfusion of the equivalent ≥2 units", "setting": "[1]; [3]", "result": "15.6 events per 1,000 subjects"},
      {"measurement": "Excess number of events: fatal or critical site bleeding", "setting": "[1]; [3]", "result": "0.0 events per 1,000 subjects"},
      {"measurement": "Excess number of events: ischemic stroke", "setting": "[1]; [3]", "result": "−29.4 events per 1,000 subjects"},
      {"measurement": "Excess number of events: major and clinically relevant non-major bleeding", "setting": "[1]; [3]", "result": "−10.1 events per 1,000 subjects"},
      {"measurement": "Excess number of events: major bleeding (primary safety outcome)", "setting": "[1]; [3]", "result": "15.6 events per 1,000 subjects"},
      {"measurement": "Excess number of events: pulmonary embolism", "setting": "[1]; [3]", "result": "15.6 events per 1,000 subjects"},
      {"measurement": "Excess number of events: trivial (minimal) bleeding", "setting": "[1]; [3]", "result": "−24.8 events per 1,000 subjects"},
      {"measurement": "Excess number of events: venous thromboembolism", "setting": "[1]; [3]", "result": "−43.2 events per 1,000 subjects"},
      {"measurement": "Excess number of events: venous thrombosis", "setting": "[1]; [3]", "result": "−58.8 events per 1,000 subjects"},
      {"measurement": "NNH: CRNM bleeding", "setting": "[1]; [4]", "result": "−39"},
      {"measurement": "NNH: major and clinically relevant non-major bleeding", "setting": "[1]; [4]", "result": "−99"},
      {"measurement": "NNH: trivial (minimal) bleeding", "setting": "[1]; [4]", "result": "−41"},
      {"measurement": "NNT: any thrombotic event (primary efficacy outcome)", "setting": "[1]; [4]", "result": "−14"},
      {"measurement": "NNT: ischemic stroke", "setting": "[1]; [4]", "result": "−34"},
      {"measurement": "NNT: venous thromboembolism", "setting": "[1]; [4]", "result": "−24"},
      {"measurement": "NNT: venous thrombosis", "setting": "[1]; [4]", "result": "−17"},
      {"measurement": "NNH: SAEs", "setting": "[1]; [5]", "result": 21},
      {"measurement": "NNH: fall in hemoglobin ≥2 g/dL or transfusion of the equivalent ≥2 units", "setting": "[1]; [5]", "result": 64},
      {"measurement": "NNH: major bleeding (primary safety outcome)", "setting": "[1]; [5]", "result": 64},
      {"measurement": "NNT: pulmonary embolism", "setting": "[1]; [5]", "result": 64},
      {"measurement": "Less events of clinically relevant non-major bleeding expected than with aspirin", "setting": "[1]; [6]", "result": 25, "unit": "events"},
      {"measurement": "More events of ISTH major bleeding expected than with aspirin", "setting": "[1]; [6]", "result": 16, "unit": "events"},
      {"measurement": "Thrombotic events (primary efficacy outcome) expected to be prevented compared with aspirin", "setting": "[1]; [6]", "result": 73, "unit": "events"},
      {"measurement": "CRNM bleeding: Hematoma, subjects n (%)", "setting": "[2]", "result": 0},
      {"measurement": "CRNM bleeding: Subconjunctival, subjects n (%)", "setting": "[2]", "result": 0},
      {"measurement": "Clinically relevant non-major (CRNM) bleeding, % of subjects", "setting": "[2]", "result": "(6.3%)"},
      {"measurement": "Clinically relevant non-major (CRNM) bleeding, No. of subjects with event", "setting": "[2]", "result": "4/64"},
      {"measurement": "Clinically relevant non-major bleeding, subjects n (%)", "setting": "[2]", "result": 5},
      {"measurement": "Fall in hemoglobin ≥2 g/dL or transfusion of the equivalent ≥2 units of packed red blood cell or whole blood in adults, No. of subjects with event", "setting": "[2]", "result": "1/64"},
      {"measurement": "Fall in hemoglobin ≥2 g/dL or transfusion of the equivalent ≥2 units, % of subjects", "setting": "[2]", "result": "(1.6%)"},
      {"measurement": "Fatal or critical site bleeding, No. of subjects with event", "setting": "[2]", "result": 0},
      {"measurement": "Major and clinically relevant non-major bleeding, % of subjects", "setting": "[2]", "result": "(7.8%)"},
      {"measurement": "Major and clinically relevant non-major bleeding, No. of subjects with event", "setting": "[2]", "result": "5/64"},
      {"measurement": "Major bleeding (ISTH), % of subjects", "setting": "[2]", "result": "(1.3%)"},
      {"measurement": "Major bleeding (ISTH), subjects n (%)", "setting": "[2]", "result": 1},
      {"measurement": "Major bleeding (primary safety outcome), % of subjects", "setting": "[2]", "result": "(1.6%)"},
      {"measurement": "Major bleeding (primary safety outcome), No. of subjects with event", "setting": "[2]", "result": "1/64"},
      {"measurement": "Trivial (minimal) bleeding, % of subjects", "setting": "[2]", "result": "(32.8%)"},
      {"measurement": "Trivial (minimal) bleeding, No. of subjects with event", "setting": "[2]", "result": "21/64"},
      {"measurement": "Trivial bleeding, subjects n (%)", "setting": "[2]", "result": 24},
      {"measurement": "Trivial bleeding: GI-Lower, subjects n (%)", "setting": "[2]", "result": 0}
    ]}
  ]
}
